# Measurements taken from patent US8133506B2, “Drug delivery systems comprising weakly basic drugs and organic acids” (Aptalis Pharmatech, Inc., priority 2008, dated 2012).
# Structures can show the parent of a compound that is named as a salt. Where two headings read alike, the source gives them in different places.
# How the values were obtained:
# [1] = Solubility in organic acid buffers (fumaric, aspartic, glutamic acid)
# [2] = pH-dependent solubility in aqueous buffer
# physchem [3] = assay: physchem
# [4] = cited from earlier work
# [5] = cited from earlier work; remark: listed apart in the source
# physchem [6] = assay: physchem; remark: listed apart in the source
# [7] = pH 6.8, aqueous buffer, solubility
smiles,measurement,setting,value
O=C1CN=C(c2ccccc2Cl)c2cc([N+](=O)[O-])ccc2N1 [Clonazepam],solubility,"[1]; buffer at pH 2.3, higher concentration of fumaric acid",about 11.6 μg/mL
same,solubility,"[1]; buffer at pH 6.8, lower concentration of fumaric acid",~6.9 µg/mL
same,solubility,"[1]; pH 2.3, aqueous buffer",11.6 µg/mL
same,solubility,"[1]; pH 2.8, aqueous buffer",10.3 µg/mL
same,solubility,"[1]; pH 3.2, aqueous buffer",9.6 µg/mL
same,solubility,"[1]; pH 3.7, aqueous buffer",9.8 µg/mL
same,solubility,"[1]; pH 5.5, aqueous buffer",290 µg/mL
same,solubility,"[2]; pH 2.2, aqueous buffer",11.4 µg/mL
same,solubility,"[2]; pH 2.8, aqueous buffer",10.2 µg/mL
same,solubility,"[2]; pH 3.2, aqueous buffer",9.6 µg/mL
same,solubility,"[2]; pH 3.8, aqueous buffer",9.2 µg/mL
same,solubility,"[2]; pH 4.2, aqueous buffer",9.1 µg/mL
same,solubility,"[2]; pH 4.8, aqueous buffer",8.6 µg/mL
same,solubility,"[2]; pH 5.4, aqueous buffer",8.4 µg/mL
same,solubility,"[2]; pH 6.2, aqueous buffer",8 µg/mL
same,solubility,[2]; physiological pHs,practically insoluble
COc1cc(C(C)=O)ccc1OCCCN1CCC(c2noc3cc(F)ccc23)CC1 [Iloperidone],solubility,"physchem [3]; pH 1.2, simulated gastric fluid, Solubility of Iloperidone in Aqueous Buffer",3900 µg/mL
same,solubility,"physchem [3]; pH 3.01, aqueous buffer, Solubility of Iloperidone in Aqueous Buffer",1440 µg/mL
same,solubility,"physchem [3]; pH 3.06, aqueous buffer, Solubility of Iloperidone in Aqueous Buffer",917 µg/mL
same,solubility,"physchem [3]; pH 4.08, aqueous buffer, Solubility of Iloperidone in Aqueous Buffer",681 µg/mL
same,solubility,"physchem [3]; pH 4.46, aqueous buffer, Solubility of Iloperidone in Aqueous Buffer",586 µg/mL
same,solubility,"physchem [3]; pH 5.09, aqueous buffer, Solubility of Iloperidone in Aqueous Buffer",341 µg/mL
same,solubility,"physchem [3]; pH 6.11, aqueous buffer, Solubility of Iloperidone in Aqueous Buffer",117 µg/mL
same,solubility,physchem [3]; [7],~30 µg/mL
same,solubility,"physchem [3]; pH 7.02, aqueous buffer, Solubility of Iloperidone in Aqueous Buffer",11 µg/mL
same,solubility,"physchem [3]; simulated gastric fluid, solubility",~3000 µg/mL
"Cc1nccn1CC1CCc2c(c3ccccc3n2C)C1=O (stereo not drawn) [Ondansetron HCl, ondansetron hydrochloride]",solubility,[4]; low pH gastric fluids,freely soluble
same,solubility,[4]; pH >6,practically insoluble
same,solubility,"physchem [3]; pH 2.2, aqueous buffer, Solubility of Ondansetron HCl in Aqueous Buffer",23300 µg/mL
same,solubility,"physchem [3]; pH 3.2, aqueous buffer, Solubility of Ondansetron HCl in Aqueous Buffer",25700 µg/mL
same,solubility,"physchem [3]; pH 4.2, aqueous buffer, Solubility of Ondansetron HCl in Aqueous Buffer",10900 µg/mL
same,solubility,"physchem [3]; pH 5, aqueous buffer, Solubility of Ondansetron HCl in Aqueous Buffer",3600 µg/mL
same,solubility,"physchem [3]; pH 5.6, aqueous buffer, Solubility of Ondansetron HCl in Aqueous Buffer",1700 µg/mL
same,solubility,"physchem [3]; pH 6.2, aqueous buffer, Solubility of Ondansetron HCl in Aqueous Buffer",400 µg/mL
same,solubility,"physchem [3]; pH 6.8, aqueous buffer, Solubility of Ondansetron HCl in Aqueous Buffer",36 µg/mL
same,solubility,physchem [3]; [7],< 50 µg/mL
same,solubility,"physchem [3]; pH 7, aqueous buffer, Solubility of Ondansetron HCl in Aqueous Buffer",25 µg/mL
same,elimination half-life,[5]; average,approximately 3.8±1 hrs
same,absorption from the gastrointestinal tract,[5]; in vivo,well absorbed
same,solubility,"physchem [6]; pH 2.01, aqueous buffer",26900 µg/mL
same,solubility,"physchem [6]; pH 2.14, aqueous buffer",27000 µg/mL
same,solubility,"physchem [6]; pH 2.4, aqueous buffer",26100 µg/mL
same,solubility,"physchem [6]; pH 2.75, aqueous buffer",26200 µg/mL
same,solubility,"physchem [6]; pH 3.49, aqueous buffer",26000 µg/mL
same,solubility,"physchem [6]; pH 4.05, aqueous buffer",26100 µg/mL
